According to patent publication US8334262B2, “Cognitive function” (priority 2008, dated 2012):

Experiments:
[1] = test system: rats; experiment: Contextual fear conditioning (freezing); type: in vivo, rat; conditions: i.p. 2 hr before conditioning; tested 24 hours and 10 days later; p<0.05
From the text: The entire behavioural procedure took place in the same conditioning chamber containing floor grids and transparent Plexiglas walls. The context of the chamber served as a conditioned stimulus (CS). Rats were placed in the chamber for an approximately two minute adjustment before they were given a foot-shock (0.8 mA for 0.5 sec), which was delivered to the floor bars and served as the unconditioned stimulus (US). The CS-US pairings were given three times. The inter-trial interval was 90-120 seconds throughout. The video images are transferred to a computer (fear-conditioning experiments, control experiment, Dell OptiPlex GXpro) equipped with an analysis program (Image (http://rsb.info.nih.gov/nih-image)) and a macroprogram (P. Schmid, Behavioral Neurobiology Laboratory, Swiss Federal Institute of Technology Zurich). The percentage of changed pixels between two adjacent 1 s images from one of the test boxes was used as a measure of activity. Freezing is commonly identified as cessation of any movement except for respiratory movements. If the percentage of changed pixels between two adjacent 1 s images was <0.05%, this corresponded well to such immobility and the behavior of the rat was scored as “freezing” for the respective second.
C-16 was injected i.p. 2 hr before contextual fear condition. […]

[2] = molecular target: T1, PKR (Rattus norvegicus, UniProt Q63184); experiment: PKR phosphorylation in hippocampal slices from mature rats (Western blot); type: cell-based
T1 construct: from tissue; host or cells: rat hippocampal slices (400 µm)
T1 sequence (Q63184 1-513): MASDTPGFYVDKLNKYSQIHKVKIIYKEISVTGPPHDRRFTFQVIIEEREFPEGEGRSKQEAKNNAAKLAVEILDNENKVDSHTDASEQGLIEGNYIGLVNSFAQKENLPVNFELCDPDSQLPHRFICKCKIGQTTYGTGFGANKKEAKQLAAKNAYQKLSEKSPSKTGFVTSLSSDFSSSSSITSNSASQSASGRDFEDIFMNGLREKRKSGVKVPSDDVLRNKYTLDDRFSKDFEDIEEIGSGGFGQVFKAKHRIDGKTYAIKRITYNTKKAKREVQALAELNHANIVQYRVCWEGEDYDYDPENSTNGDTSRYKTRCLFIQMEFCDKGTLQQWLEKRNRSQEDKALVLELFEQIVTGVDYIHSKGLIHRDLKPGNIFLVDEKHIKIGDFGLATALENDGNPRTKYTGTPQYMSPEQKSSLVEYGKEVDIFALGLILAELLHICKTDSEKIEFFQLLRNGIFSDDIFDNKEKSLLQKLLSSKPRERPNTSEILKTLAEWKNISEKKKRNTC
Experimental: (§1) In order to test biochemically the ability of C-16 to reduce eIF-2α phosphorylation in the mature brain, C-16 was applied to hippocampal slices from mature rats substantially as described by Kaphzan et al. (2007) Journal of Neurochemistry 103, 388-399 but with modifications as set out below.
(§2) After decapitation the brain was immediately immersed in cold (4° C.) carboxygenated (95% O2, 5% CO2) Artificial Cerebro-Spinal Fluid (ACSF [in mM]: 124 NaCl, 5 KCl, 1.2 MgSO4, 1.2 NaH2PO4, 26 NaHCO3, 10 D-glucose, 2.4 CaCl), and after about 120s both hippocampi were dissected out in a plate filled with cold (4° C.) ACSF on ice. The hippocampi were put on a cooled stand of a Mcllwain tissue chopper TC752 (Campden Instruments Ltd, UK), cut into 400-μm slices, and then put back into a chamber filled with carboxygenated cold (4° C.) ACSF.
(§3) The slices were transferred to a holding chamber for about 20-30 min, to reach room temperature, and were then transferred to a six-chamber pharmacological instrument, designed to our specifications by Scientific Systems Design Company (Ontario, Canada). All of the slices tested in any one experiment (i.e., in all six chambers) were produced by the same procedure from the same rat. The hippocampal slices were heated to 32° C. and were kept in the chamber for 5 h before any pharmacological intervention. Each chamber contained four slices. The slices were perfused with heated and carboxygenated ACSF (with or without 50 μM C-16 (experimental and control groups respectively)) via a Model MP3 peristaltic pump (Gilson, France), at a rate of ˜2 mL min for 10 mins. The chamber space was carboxygenated and humidified. The chamber was an interface type, and the slices were placed upon a lens paper.
(§4) The slices were analysed occasionally for their viability using extracellular recordings of fEPSP in the CA1 region. […]
(§5) The time window of C-16 effect was analysed by Western blot using specific antibodies for phosphorylated and dephosphorylated forms of PKR and eIF-2α. […]

[3] = test system: Sprague-Dawly male rats; experiment: Odour maze learning (olfactory discrimination, 4-arm radial maze); type: in vivo, rat; conditions: i.p. every day, 2 hr before training; day 3 & 6 p<0.05, n=4
Experimental: Subjects and apparatus: Age-matched young adult Sprague-Dawly male rats were used. Prior to training they were maintained on a 23.5 hr water-deprivation schedule, with food available ad libitum. Olfactory discrimination training protocol was performed daily on each trained and pseudo-trained rat in a 4-arm radial maze, as previously described (Cohen-Matsliah et al. (2007) Journal of Neuroscience 27, 12584-12589), with commercial odours that are regularly used in the cosmetics and food industry.
(§6) C-16 was injected i.p. every day, 2 hr before odour maze training. There was 48 hr break between day 3 and 4 without training or injection.
Training: Olfactory training consisted of 20 trials per day for each rat as previously described (Cohen-Matsliah et al. (2007)). In short, in each trial the rat had to choose between two odours (positive- and negative-cue) presented simultaneously. Rats designated to the trained group were rewarded upon choosing the positive cue. The criterion for learning was at least 80% positive-cue choices in the last 10 trials of a training day, as was previously used (Cohen-Matsliah et al. (2007)). Training for a new pair began only after training for the […] pair was completed for all rats.

[4] = test system: rats; experiment: Observation of side effects in rats injected with C-16; type: in vivo, rat
Experimental: Conditioned taste aversion and novel taste learning were enhanced.
as §6

[5] = test system: eIF-2α; experiment: eIF-2α phosphorylation in hippocampal slices from mature rats (Western blot); type: cell-based, rat
Experimental: as §1, §2, §3, §4, §5

[6] = molecular target: PKR (Homo sapiens, UniProt P19525); conditions: by inhibiting the ATP-binding site of PKR; cited from earlier work
[7] = test system: rats; experiment: Novel taste learning, latent inhibition (LI) paradigm; type: in vivo, rat
Experimental: CTA was performed as described earlier (Rosenblum et al., (1993) Behavioral and Neural Biology 59, 49-56). Saccharin (0.1% w/v, sodium salt) or NaCl (0.3%) were used as the unfamiliar taste in training (i.e. the conditioned stimulus (CS)), and injection of LiCl (0.15 m, 2% body weight, i.p.) as the malaise-inducing agent (unconditioned stimulus (UCS)). At the beginning of the behavioral experiment, the rats were trained for 3 days to obtain their daily water ration once a day for 15 min from two pipettes each containing 10 mL of water. On the conditioning day, they were allowed to drink the saccharin solution instead of water from similar pipettes for 15 min, and 50 min later were injected with LiCl. Under these conditions, 2 days after training the conditioned rats preferred water to saccharin in a multiple choice test situation (three pipettes with 5 mL of saccharin each and three with 5 mL of water each), whereas non-conditioned rats preferred saccharin to water. The behavioural data are presented in terms of aversion index, defined as [mL water/(mL water+mL saccharin)] consumed in the test; 0.5 is a chance level, and the higher the aversion index, the more the rats prefer water to the conditioned taste. […]

[8] = test system: rats; experiment: Weak conditioned taste aversion (CTA); type: in vivo, rat
[9] = 50 μM C-16 perfused on hippocampal slices
[10] = time window, Western blot, 1 hr after treatment

Chain of PKR (Homo sapiens, UniProt P19525) (P19525 whole entry): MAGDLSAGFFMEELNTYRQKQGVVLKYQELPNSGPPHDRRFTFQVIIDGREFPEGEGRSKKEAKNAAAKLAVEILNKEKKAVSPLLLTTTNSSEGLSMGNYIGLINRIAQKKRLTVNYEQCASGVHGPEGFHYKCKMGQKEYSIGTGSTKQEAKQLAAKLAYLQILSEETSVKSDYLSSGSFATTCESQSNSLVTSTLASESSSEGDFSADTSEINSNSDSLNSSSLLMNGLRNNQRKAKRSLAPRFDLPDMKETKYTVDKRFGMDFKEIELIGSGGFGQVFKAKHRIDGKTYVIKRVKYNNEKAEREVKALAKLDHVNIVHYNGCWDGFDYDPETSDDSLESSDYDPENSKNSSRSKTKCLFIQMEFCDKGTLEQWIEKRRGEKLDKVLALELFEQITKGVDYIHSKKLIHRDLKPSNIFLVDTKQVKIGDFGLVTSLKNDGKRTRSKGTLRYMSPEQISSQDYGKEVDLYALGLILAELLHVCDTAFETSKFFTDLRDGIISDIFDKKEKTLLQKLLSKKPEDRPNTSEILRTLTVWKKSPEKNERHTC

In the case of `O=C1Nc2ccc3ncsc3c2/C1=C/c1c[nH]cn1` [Compound C-16], the “contextual fear condition, average freezing between 4th and 7th minutes (FIG. 12)” value [1] is reported as “enhances contextual fear condition”, the “PKR phosphorylation in the mature hippocampus (FIG. 2)” value [2, 9] is reported as “inhibited” and the “time of return of PKR phosphorylation to base line following treatment” value ([2]; time window, Western blot) is reported as 3 to 4 h. The “C-16 effect on PKR phosphorylation after 1 hr” value [2, 10] was “strong effect”, the “odour maze learning (FIG. 11)” value [3] was “enhances odour maze learning” and the “side effects on repeated i.p. injection” value ([4]; i.p. once a day over a period of more than 7 days, odour maze experiment) was “without any clear disadvantageous side effect”. For the same compound, the “other effects in taste learning experiments” value ([4]; local and i.p. injection) was “no other effect that could be measured”, the “eIF-2α phosphorylation in the mature hippocampus (FIG. 3)” value [5, 9] was “inhibited” and the “time of return of eIF-2α phosphorylation to base line following treatment” value ([5]; time window, Western blot) was 3 to 4 h. The “C-16 effect on eIF-2α phosphorylation after 1 hr” value [5, 10] was “strong effect”, the PKR kinase activity [6] was “able to inhibit PKR's kinase activity” and the “novel taste memory of 0.1% Saccharin (FIG. 8)” value ([7]; 30 min after local microinjection into the gustatory cortex, 50 μM, p<0.05) was “enhances novel taste memory”. The “novel taste memory of 0.1% Saccharin (FIG. 7)” value ([7]; 2 hr after i.p. application, p<0.01, n=6) was “enhances novel taste memory”, the “weak CTA (0.05M) to 0.3% NaCl (FIG. 10)” value ([8]; 30 min after local injection into the gustatory cortex, 50 μM, p<0.05) was “enhances weak CTA” and the “weak Conditioned Taste Aversion (0.05M) to 0.3% NaCl (FIG. 9)” value ([8]; 2 hr after i.p. application, n=8) was “enhances weak Conditioned Taste Aversion”.
